Marks after values point to notes of the source that are not given here.
Experiments:
[1] = target: T1, Bcl-xL (Homo sapiens, UniProt Q07817, DEL45-84); assay: STD-NMR (saturation transfer difference) spectra on Bcl-xL/ligand complexes; assay type: binding
T1 construct: deletion mutant of Bcl-xL (that lacks the putative carboxy-terminal transmembrane region and residues 49-88) was used; His tag (C); made in house; host or cells: E. coli BL21(DE3)
Experimental: A sample of unlabeled Bcl-xL as well as samples of perdeuterated Bcl-xL that were selectively protonated at the specific amino acids Arg, Tyr, Leu, Ile, and Met were prepared in accordance with the procedures of Example 1. Samples of 200 uM 4-(4-fluorophenyl)benzoic acid (3, Array), [drawing 1]
(§1) 500 uL of the ligand solution was transferred to each of 8 NMR tubes (Wilmad). The protein solutions were then added to the NMR tubes to a final protein concentration of 40 uM in the following manner: Sample 1: unlabeled Bcl-xL; Sample 2: U-^2H-Bcl-xL; Sample 3: U-^2H-{^1H-R}-Bcl-xL; Sample 4: U-^2H-{^1H-Y}-Bcl-xL; Sample 5: U-^2H-{^1H-L}-Bcl-xL; Sample 6: U-2H-{^1H-I}-Bcl-xL; Sample 7: U-^2H-{^1H-M}-Bcl-xL; Sample 8: No protein.
STD-NMR spectra (Mayer and Meyer, J. Am. Chem. Soc. 2001, 123, 6108-6117) were determined on each of the eight samples. All NMR experiments were performed at 300K on a Bruker Avance DRX500 system equipped with a CryoProbe. The pulse sequence for the ID STD-NMR spectra was identical to that used by Mayer and Meyer (2001) except that a CPMG T2-filter was used instead of a T1p-filter to remove background protein resonances. Subtraction of the on- and off-resonance spectra was performed internally and a WATERGATE sequence was used for suppression of the residual solvent signal. On-resonance irradiation of the protein was performed by using a train of Gauss-shaped pulses of 2.5 ms length separated by a 2.5 ms delay, and alternating on-resonance irradiation was applied at 0.8 and 3.0 ppm. Off-resonance irradiation was applied at −10.0 ppm. 280 shaped pulses were used in the pulse train, leading to a total saturation time of 1.4 s. All spectra were acquired with a 100 ms T2-filter, 1024 complex points, 1024 scans, a ^1H sweep width of 8333 Hz, and a total recycle time of 2.0 s.
All NMR spectra were processed and analyzed on Silicon Graphics computers using standard protocols well-known in the art. STD-NMR spectra for biaryl 3 in the presence of unlabeled Bcl-xL (Sample 1), U-^2H-Bcl-xL (Sample 2), and no protein are shown in FIG. 5. […] Therefore, the signal intensity for each resonance of the biaryl 3 in the presence of unlabeled and perdeuterated protein was taken as the maximum and minimum intensity, respectively, for the NOE in the presence of the selectively protonated samples. The intensity of the NOEs could then be calculated using the following equation, [formula]
where I(norm) is the normalized intensity in the STD-NMR spectrum for a given biaryl resonance, and I(SL), I(^2H), and I(^1H) are the intensities of the resonance in the presence of the selectively protonated, perdeuterated, and unlabeled protein, respectively. The normalized NOE intensities can be visualized by simple subtraction of the STD-NMR spectrum of the ligand in the presence of deuterated protein from each of the selectively protonated samples. In these spectra, it is clearly seen that an arginine residue is in close contact with the benzoic acid portion of 3 (magnetization transfer to HA and HB/C), but not the fluorophenyl portion. It is also clear that a tyrosine and leucine residue is in contact with the fluorophenyl portion of 3 (magnetization transfer to HD and HB/C), but not the benzoic acid portion. Spectra shown in (E) and (F) indicate that no portion of the biaryl is in contact with any isoleucine or methionine residues.
These NOE intensities were then converted into distance restraints for use in structural calculations in the following manner. For any given amino acid type and ligand resonance, normalized NOE intensities less than 5% were treated as having no interaction. Therefore, distances between that ligand atom and all protons on all amino acids of that specific type were set at greater than 5 Å. For NOE intensities greater than 15%, ambiguous distance restraints were assigned. […]

[2] = target: Bcl-xL (Homo sapiens, UniProt Q07817); assay: NMR-based screening; assay type: binding; settings: independently determined
Chain of Bcl-xL (Homo sapiens, UniProt Q07817) (Q07817 whole entry): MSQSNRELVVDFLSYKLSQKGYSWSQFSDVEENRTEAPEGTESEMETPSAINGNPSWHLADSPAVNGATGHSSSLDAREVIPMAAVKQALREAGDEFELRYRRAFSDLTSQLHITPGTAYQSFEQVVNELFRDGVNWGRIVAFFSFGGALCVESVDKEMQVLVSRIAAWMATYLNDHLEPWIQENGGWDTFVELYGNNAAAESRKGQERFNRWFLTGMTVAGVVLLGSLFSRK
Experimental: as §1

[3] = ligand proton HA, Sample 1 Unlabeled Bcl-xL
[4] = ligand proton HA, Sample 2 U-2H-Bcl-xL
[5] = ligand proton HD, Sample 1 Unlabeled Bcl-xL
[6] = ligand proton HD, Sample 2 U-2H-Bcl-xL
[7] = ligand protons HB/HC, Sample 1 Unlabeled Bcl-xL
[8] = ligand protons HB/HC, Sample 2 U-2H-Bcl-xL

T1 sequence (Q07817 with tags, fused parts or gaps DEL45-84 limits assumed): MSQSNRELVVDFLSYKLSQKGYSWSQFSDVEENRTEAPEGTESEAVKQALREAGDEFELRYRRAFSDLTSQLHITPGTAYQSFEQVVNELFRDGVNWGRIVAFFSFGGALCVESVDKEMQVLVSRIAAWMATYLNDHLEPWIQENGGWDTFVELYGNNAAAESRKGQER

For `O=C(O)c1ccc(-c2ccc(F)cc2)cc1` [biaryl 3, 4-(4-fluorophenyl)benzoic acid], which “Normalized NOE intensity” value ([1]; HA protons, in the presence of U-2H-{1H-Y}-Bcl-xL) is on record?
Its value is 3%.

What about the “Normalized NOE intensity” value ([1]; HD protons, in the presence of U-2H-{1H-Y}-Bcl-xL) of the same compound?
The value was 22%.

What about the “Distance restraint derived from the NOE intensity data” value (“Distance restraint derived” for short) ([1]; ligand proton HA to arginine protons, Sample 3 U-2H-{1H-R}-Bcl-xL) of the same compound?
Its value is <4^a Å.

What about the “Distance restraint derived” value ([1]; ligand proton HA to isoleucine protons, Sample 6 U-2H-{1H-I}-Bcl-xL) of the same compound?
Its value is >5 Å.

What about the “Distance restraint derived” value ([1]; ligand proton HA to methionine protons, Sample 7 U-2H-{1H-M}-Bcl-xL) of the same compound?
Its value is >5 Å.

And the “Distance restraint derived” value ([1]; ligand proton HA to tyrosine protons, Sample 4 U-2H-{1H-Y}-Bcl-xL)?
Its value is >5 Å.

What about the “Actual NOE intensity” value [1, 3] of the same compound?
Its value is “(175)”.

And the “Normalized NOE intensity” value [1, 3]?
Its value is 100^a.

What about the “Actual NOE intensity” value [1, 4] of the same compound?
Its value is “(17)”.

And the “Normalized NOE intensity” value [1, 4]?
Its value is 0.

What about the “Actual NOE intensity” value ([1]; ligand proton HA, Sample 3 U-2H-{1H-R}-Bcl-xL) of the same compound?
Its value is “(57)”.

What about the “Actual NOE intensity” value ([1]; ligand proton HA, Sample 4 U-2H-{1H-Y}-Bcl-xL) of the same compound?
The value was “(22)”.

And the “Actual NOE intensity” value ([1]; ligand proton HA, Sample 5 U-2H-{1H-L}-Bcl-xL)?
The value was “(28)”.

And the “Actual NOE intensity” value ([1]; ligand proton HA, Sample 6 U-2H-{1H-I}-Bcl-xL)?
The value was “(18)”.

What about the “Actual NOE intensity” value ([1]; ligand proton HA, Sample 7 U-2H-{1H-M}-Bcl-xL) of the same compound?
The value was “(23)”.

And the “Distance restraint derived” value ([1]; ligand proton HD to leucine protons, Sample 5 U-2H-{1H-L}-Bcl-xL)?
Its value is <3 Å.

What about the “Actual NOE intensity” value [1, 5] of the same compound?
The value was “(167)”.

What about the “Normalized NOE intensity” value [1, 5] of the same compound?
Its value is 100.

What about the “Actual NOE intensity” value [1, 6] of the same compound?
Its value is “(28)”.

What about the “Normalized NOE intensity” value [1, 6] of the same compound?
Its value is 0.

And the “Actual NOE intensity” value ([1]; ligand proton HD, Sample 3 U-2H-{1H-R}-Bcl-xL)?
The value was “(40)”.

And the “Actual NOE intensity” value ([1]; ligand proton HD, Sample 4 U-2H-{1H-Y}-Bcl-xL)?
Its value is “(59)”.

And the “Actual NOE intensity” value ([1]; ligand proton HD, Sample 5 U-2H-{1H-L}-Bcl-xL)?
The value was “(93)”.

And the “Actual NOE intensity” value ([1]; ligand proton HD, Sample 6 U-2H-{1H-I}-Bcl-xL)?
Its value is “(40)”.

What about the “Actual NOE intensity” value ([1]; ligand proton HD, Sample 7 U-2H-{1H-M}-Bcl-xL) of the same compound?
Its value is “(45)”.

What about the “Distance restraint derived” value ([1]; ligand protons HB/HC to arginine protons, Sample 3 U-2H-{1H-R}-Bcl-xL) of the same compound?
The value was <5 Å.

What about the “Distance restraint derived” value ([1]; ligand protons HB/HC to isoleucine protons, Sample 6 U-2H-{1H-I}-Bcl-xL) of the same compound?
Its value is >5 Å.

And the “Distance restraint derived” value ([1]; ligand protons HB/HC to leucine protons, Sample 5 U-2H-{1H-L}-Bcl-xL)?
Its value is <5 Å.

And the “Distance restraint derived” value ([1]; ligand protons HB/HC to methionine protons, Sample 7 U-2H-{1H-M}-Bcl-xL)?
The value was >5 Å.

And the “Actual NOE intensity” value [1, 7]?
The value was “(200)”.

What about the “Normalized NOE intensity” value [1, 7] of the same compound?
Its value is 100.

And the “Actual NOE intensity” value [1, 8]?
The value was “(32)”.

What about the “Normalized NOE intensity” value [1, 8] of the same compound?
The value was 0.

What about the “Actual NOE intensity” value ([1]; ligand protons HB/HC, Sample 3 U-2H-{1H-R}-Bcl-xL) of the same compound?
The value was “(70)”.

What about the “Actual NOE intensity” value ([1]; ligand protons HB/HC, Sample 4 U-2H-{1H-Y}-Bcl-xL) of the same compound?
Its value is “(49)”.

What about the “Actual NOE intensity” value ([1]; ligand protons HB/HC, Sample 5 U-2H-{1H-L}-Bcl-xL) of the same compound?
The value was “(71)”.

What about the “Actual NOE intensity” value ([1]; ligand protons HB/HC, Sample 6 U-2H-{1H-I}-Bcl-xL) of the same compound?
Its value is “(30)”.

What about the “Actual NOE intensity” value ([1]; ligand protons HB/HC, Sample 7 U-2H-{1H-M}-Bcl-xL) of the same compound?
The value was “(30)”.

What about the “binding to Bcl-xL (NMR-based screening)” value [2] of the same compound?
The value was “ligand for Bcl-xL”.
